Experimental data taken from US4024282A, “Pharmaceutically active 2-(3-alkylaminopropoxy)diphenylmethanes” (Mitsubishi Chemical Industries Ltd., priority 1975, dated 1977).
Counter-ions that a name gives are not always drawn. Like-named read-outs stand apart in the source and are kept apart here.

What was measured:
[1] = tested on: reserpine induced hypothermia; assay: Antagonism of reserpine induced hypothermia in mice (antireserpine / antidepressant activity); format: in vivo; settings: for Antidepressant activity (in words): according to pharmacological testing, reversal of reserpine hypothermia in mice
Description: (§1) The compounds were administered intraperitoneally and the activities of the compounds were compared with those of Amitriptyline.

[2] = tested on: electroshock induced tonic extensor; assay: Antagonism of electroshock induced tonic extensor (anticonvulsant activity); format: in vivo; settings: Mus musculus, ip; mice; dose preventing 50% of response
Description: as §1

[3] = tested on: neurological deficit as measured by traction tests; assay: Traction test (CNS depressant activity, muscle relaxant action); format: in vivo; settings: mice; for ED50: Mus musculus, ip, traction test, dose preventing 50% of response
Description: as §1

[4] = tested on: spontaneous motor activity; assay: Spontaneous motor activity measured by ANIMEX apparatus (CNS depressant activity); format: in vivo; settings: Mus musculus, ip, mice, i.p., dose preventing 50% of response, read-out: Spontaneous motor activity depression ED50
Description: as §1

[5] = tested on: tremorine induced tremor; assay: Tremorine induced tremor (central anticholinergic effect); format: in vivo; settings: mice; for ED50: Mus musculus, ip, i.p., dose preventing 50% of response, read-out: Antitremorine effect ED50
Description: as §1

[6] = in vivo; settings: mouse, ip
[7] = mice, in b83 as compared with Amitriptyline at the same relative potency

| Compound | Antidepressant activity (in words) [1] | ED50 [2] [mg/kg] | ED50 [3] [mg/kg] | ED50 [4] [mg/kg] | ED50 [5] [mg/kg] | LD50 [6] [mg/kg] | other results |
| --- | --- | --- | --- | --- | --- | --- | --- |
| CN(C)CCOc1ccccc1Cc1ccccc1 [2-(2-dimethylaminoethoxy) diphenylmethane] | do not possess antidepressant activity |  |  |  |  |  |  |
| CNCCOc1ccccc1Cc1ccccc1 [2-(2-methylaminoethoxy) diphenylmethane] | do not possess antidepressant activity |  |  |  |  |  |  |
| CN(C)CCCOc1ccccc1Cc1ccccc1 [2-(3-dimethylaminopropoxy)-diphenylmethane] | do not possess antidepressant activity |  |  |  |  |  |  |
| CNCCCOc1ccccc1Cc1ccccc1 [2-(3-methylaminopropoxy) diphenylmethane hydrochloride] |  | 40 | 65 | 90 | 42 | 160 | Antireserpine activity, Relative Potency ([1]; mice, i.p., reserpine 5 mg/kg i.p., Amitriptyline = 1): 0.56 |
| CNCCCOc1ccccc1Cc1ccccc1 [2-(3-methylaminopropoxy) diphenylmethane] | high level of antidepressant activity |  |  |  |  |  | CNS depressant action (in words) ([3]; as compared with Amitriptyline at the same relative potency, traction test and spontaneous motor activity): weaker CNS depressant; Anticholinergic action (in words) ([5]; as compared with Amitriptyline at the same relative potency): weaker CNS depressant and anticholinergic action; Toxicity (in words) [7]: low level of toxicity; Toxicity (in words) ([7]; listed as 2-(3-methylaminopropoxy)diphenylmethane): lower toxicity |
| CN(C)CCC=C1c2ccccc2CCc2ccccc21 [Amitriptyline, reference compound] |  | 16 | 15 | 18 | 4 | 65 |  |
